{"source": "patent US5179088A", "about": "“1-Carba(dethia)cephalosporin antibiotics” (Eli Lilly and Company, priority 1990, dated 1993)", "type_in_all_cases": "cell-based", "design_in_all_cases": "unit not given here", "key": {"Staphylococcus Aureus": {"test_system": "Staphylococcus Aureus", "assay": "in vitro antibacterial activity, agar dilution (Staphylococcus aureus)", "description": "(§1) *minimum inhibitory concentrations were determined by the Agardilution"}, "Staphylococcus Epi": {"test_system": "Staphylococcus Epi", "assay": "in vitro antibacterial activity, agar dilution (Staphylococcus epi)", "description": "as §1"}, "Streptococcus A": {"test_system": "Streptococcus A", "assay": "in vitro antibacterial activity, agar dilution (Streptococcus A)", "description": "as §1"}, "Streptococcus pn": {"test_system": "Streptococcus pn", "assay": "in vitro antibacterial activity, agar dilution (Streptococcus pn)", "settings": "strain PARK", "description": "as §1"}, "Streptococcus D": {"test_system": "Streptococcus D", "assay": "in vitro antibacterial activity, agar dilution (Streptococcus D)", "description": "as §1"}, "H. Influ.": {"test_system": "H. Influ.", "assay": "in vitro antibacterial activity, agar dilution (H. influ.)", "description": "as §1"}, "E. coli": {"test_system": "E. coli", "assay": "in vitro antibacterial activity, agar dilution (E. coli)", "description": "as §1"}, "Klebsiella": {"test_system": "Klebsiella", "assay": "in vitro antibacterial activity, agar dilution (Klebsiella)", "description": "as §1"}, "Enterbacter Aerogenes": {"test_system": "Enterbacter Aerogenes", "assay": "in vitro antibacterial activity, agar dilution (Enterobacter aerogenes)", "description": "as §1"}, "Enterbacter Cloacea": {"test_system": "Enterbacter Cloacea", "assay": "in vitro antibacterial activity, agar dilution (Enterobacter cloacae)", "description": "as §1"}, "Salmonella": {"test_system": "Salmonella", "assay": "in vitro antibacterial activity, agar dilution (Salmonella)", "description": "as §1"}, "Pseudomonas": {"test_system": "Pseudomonas", "assay": "in vitro antibacterial activity, agar dilution (Pseudomonas)", "description": "as §1"}, "Serratia": {"test_system": "Serratia", "assay": "in vitro antibacterial activity, agar dilution (Serratia)", "description": "as §1"}, "Shig. sonn": {"test_system": "Shig. sonn", "assay": "in vitro antibacterial activity, agar dilution (Shig. sonn)", "description": "as §1"}, "Proteus morg": {"test_system": "Proteus morg", "assay": "in vitro antibacterial activity, agar dilution (Proteus morg)", "description": "as §1"}, "Proteus incon": {"test_system": "Proteus incon", "assay": "in vitro antibacterial activity, agar dilution (Proteus incon)", "description": "as §1"}, "Proteus rett": {"test_system": "Proteus rett", "assay": "in vitro antibacterial activity, agar dilution (Proteus rett)", "description": "as §1"}, "Citro": {"test_system": "Citro", "assay": "in vitro antibacterial activity, agar dilution (Citro)", "description": "as §1"}, "Acin": {"test_system": "Acin", "assay": "in vitro antibacterial activity, agar dilution (Acin)", "description": "as §1"}}}
{"smiles": "CO/N=C(\\C(=O)N[C@@H]1C(=O)N2C(C(=O)O)=C(c3csc(-c4ccco4)n3)CC[C@H]12)c1csc(N)n1", "note": "[Example 32]", "values": [{"measurement": "minimum inhibitory concentration", "setting": "Staphylococcus Aureus; strain S13E", "value": 128}, {"measurement": "minimum inhibitory concentration", "setting": "Staphylococcus Aureus; strain S13E, retest", "value": 128}, {"measurement": "minimum inhibitory concentration", "setting": "Staphylococcus Aureus; strain V41", "value": 8}, {"measurement": "minimum inhibitory concentration", "setting": "Staphylococcus Aureus; strain V41, retest", "value": 4}, {"measurement": "minimum inhibitory concentration", "setting": "Staphylococcus Aureus; strain X1.1", "value": 4}, {"measurement": "minimum inhibitory concentration", "setting": "Staphylococcus Aureus; strain X1.1, retest", "value": 2}, {"measurement": "minimum inhibitory concentration", "setting": "Staphylococcus Aureus; strain X400", "value": "> 128"}, {"measurement": "minimum inhibitory concentration", "setting": "Staphylococcus Aureus; strain X400, retest", "value": "> 128"}, {"measurement": "minimum inhibitory concentration", "setting": "Staphylococcus Epi; strain 222", "value": 4}, {"measurement": "minimum inhibitory concentration", "setting": "Staphylococcus Epi; strain 222, retest", "value": 4}, {"measurement": "minimum inhibitory concentration", "setting": "Staphylococcus Epi; strain 270", "value": 16}, {"measurement": "minimum inhibitory concentration", "setting": "Staphylococcus Epi; strain 270, retest", "value": 8}, {"measurement": "minimum inhibitory concentration", "setting": "Streptococcus A; strain C203", "value": ".015"}, {"measurement": "minimum inhibitory concentration", "setting": "Streptococcus A; strain C203, retest", "value": ".015"}, {"measurement": "minimum inhibitory concentration", "setting": "Streptococcus pn", "value": ".03"}, {"measurement": "minimum inhibitory concentration", "setting": "Streptococcus pn; retest", "value": ".03"}, {"measurement": "minimum inhibitory concentration", "setting": "Streptococcus D; strain 2041", "value": 16}, {"measurement": "minimum inhibitory concentration", "setting": "Streptococcus D; strain 2041, retest", "value": 16}, {"measurement": "minimum inhibitory concentration", "setting": "Streptococcus D; strain X66", "value": "> 128"}, {"measurement": "minimum inhibitory concentration", "setting": "Streptococcus D; strain X66, retest", "value": "> 128"}, {"measurement": "minimum inhibitory concentration", "setting": "H. Influ.; res, strain 76", "value": "< .008"}, {"measurement": "minimum inhibitory concentration", "setting": "H. Influ.; res, strain 76, retest", "value": ".015"}, {"measurement": "minimum inhibitory concentration", "setting": "H. Influ.; sens, strain C.L.", "value": ".06"}, {"measurement": "minimum inhibitory concentration", "setting": "H. Influ.; sens, strain C.L., retest", "value": ".03"}, {"measurement": "minimum inhibitory concentration", "setting": "E. coli; strain EC14", "value": 1}, {"measurement": "minimum inhibitory concentration", "setting": "E. coli; strain EC14, retest", "value": ".5"}, {"measurement": "minimum inhibitory concentration", "setting": "E. coli; strain N10", "value": 1}, {"measurement": "minimum inhibitory concentration", "setting": "E. coli; strain N10, retest", "value": 1}, {"measurement": "minimum inhibitory concentration", "setting": "E. coli; strain TEM", "value": "< .008"}, {"measurement": "minimum inhibitory concentration", "setting": "E. coli; strain TEM, retest", "value": ".5"}, {"measurement": "minimum inhibitory concentration", "setting": "Klebsiella; strain KAE", "value": 1}, {"measurement": "minimum inhibitory concentration", "setting": "Klebsiella; strain KAE, retest", "value": 16}, {"measurement": "minimum inhibitory concentration", "setting": "Klebsiella; strain X26", "value": 8}, {"measurement": "minimum inhibitory concentration", "setting": "Klebsiella; strain X26, retest", "value": "< .008"}, {"measurement": "minimum inhibitory concentration", "setting": "Klebsiella; strain X68", "value": 1}, {"measurement": "minimum inhibitory concentration", "setting": "Klebsiella; strain X68, retest", "value": 1}, {"measurement": "minimum inhibitory concentration", "setting": "Enterbacter Aerogenes; strain C32", "value": 1}, {"measurement": "minimum inhibitory concentration", "setting": "Enterbacter Aerogenes; strain C32, retest", "value": ".5"}, {"measurement": "minimum inhibitory concentration", "setting": "Enterbacter Aerogenes; strain EB17", "value": 1}, {"measurement": "minimum inhibitory concentration", "setting": "Enterbacter Aerogenes; strain EB17, retest", "value": 1}, {"measurement": "minimum inhibitory concentration", "setting": "Enterbacter Cloacea; strain 265A", "value": 128}, {"measurement": "minimum inhibitory concentration", "setting": "Enterbacter Cloacea; strain 265A, retest", "value": 128}, {"measurement": "minimum inhibitory concentration", "setting": "Enterbacter Cloacea; strain EB5", "value": 2}, {"measurement": "minimum inhibitory concentration", "setting": "Enterbacter Cloacea; strain EB5, retest", "value": 2}, {"measurement": "minimum inhibitory concentration", "setting": "Salmonella; strain 1335", "value": 4}, {"measurement": "minimum inhibitory concentration", "setting": "Salmonella; strain 1335, retest", "value": 2}, {"measurement": "minimum inhibitory concentration", "setting": "Salmonella; strain X514", "value": 1}, {"measurement": "minimum inhibitory concentration", "setting": "Salmonella; strain X514, retest", "value": 1}, {"measurement": "minimum inhibitory concentration", "setting": "Pseudomonas; strain PS18", "value": "> 128"}, {"measurement": "minimum inhibitory concentration", "setting": "Pseudomonas; strain PS18, retest", "value": "> 128"}, {"measurement": "minimum inhibitory concentration", "setting": "Pseudomonas; strain PS72", "value": "> 128"}, {"measurement": "minimum inhibitory concentration", "setting": "Pseudomonas; strain PS72, retest", "value": "> 128"}, {"measurement": "minimum inhibitory concentration", "setting": "Pseudomonas; strain X239", "value": "> 128"}, {"measurement": "minimum inhibitory concentration", "setting": "Pseudomonas; strain X239, retest", "value": "> 128"}, {"measurement": "minimum inhibitory concentration", "setting": "Pseudomonas; strain X528", "value": "> 128"}, {"measurement": "minimum inhibitory concentration", "setting": "Pseudomonas; strain X528, retest", "value": "> 128"}, {"measurement": "minimum inhibitory concentration", "setting": "Serratia; strain SE3", "value": 16}, {"measurement": "minimum inhibitory concentration", "setting": "Serratia; strain SE3, retest", "value": 16}, {"measurement": "minimum inhibitory concentration", "setting": "Serratia; strain X99", "value": 14}, {"measurement": "minimum inhibitory concentration", "setting": "Serratia; strain X99, retest", "value": 2}, {"measurement": "minimum inhibitory concentration", "setting": "Shig. sonn; strain N9", "value": 1}, {"measurement": "minimum inhibitory concentration", "setting": "Shig. sonn; strain N9, retest", "value": 1}, {"measurement": "minimum inhibitory concentration", "setting": "Proteus morg; strain PR15", "value": 2}, {"measurement": "minimum inhibitory concentration", "setting": "Proteus morg; strain PR15, retest", "value": 2}, {"measurement": "minimum inhibitory concentration", "setting": "Proteus incon; strain PR33", "value": ".5"}, {"measurement": "minimum inhibitory concentration", "setting": "Proteus incon; strain PR33, retest", "value": ".25"}, {"measurement": "minimum inhibitory concentration", "setting": "Proteus rett; strain C24", "value": ".5"}, {"measurement": "minimum inhibitory concentration", "setting": "Proteus rett; strain C24, retest", "value": ".5"}, {"measurement": "minimum inhibitory concentration", "setting": "Citro; strain CF17", "value": ".5"}, {"measurement": "minimum inhibitory concentration", "setting": "Citro; strain CF17, retest", "value": 1}, {"measurement": "minimum inhibitory concentration", "setting": "Acin; strain AC12", "value": 128}, {"measurement": "minimum inhibitory concentration", "setting": "Acin; strain AC12, retest", "value": 128}]}
